# Test results taken from US20150132388A1 (Druggability Technologies Holdings Limited, priority 2013, published 2015).
# Tests used:
# PAMPA permeability = assay type: in vitro ADME; conditions: both the fed and fasted state simulating conditions
# Protocol: Reference source not found. PAMPA permeability measurements were performed as described by M. Kansi et al. (Journal of medicinal chemistry, 41, (1998) pp 1007) with modifications based on S. Bendels et al (Pharmaceutical research, 23 (2006) pp 2525). Permeability was measured in a 96-well plate assay across an artificial membrane composed of dodecane with 20% soy lecithin supported by a PVDF membrane (Millipore, USA). The receiver compartment was phosphate buffered saline (pH 7.0) supplemented with 1% sodium dodecyl sulfate. The assay was performed at room temperature; incubation time was 1-24 hours. The concentration in the receiver compartment was determined by UV-VIS spectrophotometry (Thermo Scientific Genesys S10).
# The ratio of the selected complexation agents and pharmaceutically acceptable excipients (Lutrol F127 and Sodium acetate) was optimized.
# [1] = Comparative solubility test (apparent solubility, UV-VIS); assay type: physicochemical; conditions: distillated water, room temperature, 100 nm syringe filter
# Protocol: The samples were dispersed in distillated water and the resulting dispersions were filtered by 100 nm disposable syringe filter. The active content in the filtrate was measured by UV-Vis spectrophotometry and the solubility was calculated.
# [2] = cited from earlier work
# [3] = system: tamoxifen-resistant, as well as estrogen-sensitive human breast cancer (MCF-7) cell lines; conditions: tamoxifen-resistant and estrogen-sensitive MCF-7 cell lines; cited from earlier work
# [4] = system: xenografts of human breast cancer MCF-7 cells; conditions: cited from earlier work
# [5] = immature or ovariectomized mice and rats; cited from earlier work
# [6] = immature rats and ovariectomized monkeys; cited from earlier work
# [7] = intramuscular injection of 250 mg
substance,measurement,setting,value
"7-alpha-[9-(4,4,5,5,5-penta fluoropentylsulphinyl)nonyl]estra-1,3,5-(10)-triene-3,17 beta-diol [Fulvestrant]",PAMPA permeability,PAMPA permeability,not detectable
same,Solubility (apparent solubility),[1],< 30 µg/mL
same,Time to maximum plasma concentrations,[2]; 250 mg intramuscularly,about 7 days
same,Excretion via the feces,[2]; in vivo,approximately 90%
same,Renal elimination,[2]; in vivo,less than 1%
same,Apparent half-life,[2]; [7],about 40 days
same,Clearance (Mean±SD),[2]; [7],690 ± 226 mL/min
same,Bioavailability,"[2]; intramuscular, between study comparisons",90-100%
same,Accumulation,[2]; once a month administration,2-3 fold
same,Time to steady state,[2]; once a month administration,about 6 months
same,Terminal half-life,"[2]; single dose studies, intramuscular",about 50 days
same,Inhibition of cell growth,[3],reversible inhibitor of the growth
same,Establishment of tumors from xenografts,[4]; MCF-7 cells in nude mice,delayed the establishment of tumors
same,Growth of established xenografts,[4]; established MCF-7 xenografts and tamoxifen-resistant breast tumor xenografts,inhibited the growth
same,Agonist-type effects in uterotropic assays,[5],no agonist-type effects
same,Effect on the uterotrophic action of estradiol,[6],blocked the uterotrophic action of estradiol
